We go through seven molecules from the NIST ThermoML archive (doi:10.1016/j.fluid.2008.01.020).

Numbers after ± are expanded uncertainties.

For data set [1] the following is noted: Liquid; for mass density: 293.15 K, 101.33 kPa.
A short description of data set [2]: refractive index (Na D-line) (dimensionless). Particulars: 101.33 kPa, Liquid, Standard Abbe refractometry.

On to `CN(C)C=O` [dimethylformamide], for which, in data set [1], the mass density (usually mass per unit of volume) was determined as 948.7 ± 1.4 kg/m3. Besides, the vapor or sublimation pressure (usually the equilibrium pressure above the liquid or solid) in data set [1] (420.95 K) is 95.1 ± 3 kPa. The refractive index (as a rule, the speed of light in vacuum divided by its phase velocity in the sample) in data set [2] (293.15 K) worked out at 1.4305 ± 0.0007.
Consider `Cc1ccccc1C` [1,2-dimethylbenzene], for which the mass density in data set [1] is on record as 880.1 ± 1.3 kg/m3. In addition, in data set [1] (415.35 K), the “vapor or sublimation pressure” value was 95.1 ± 3 kPa. In addition, the refractive index in data set [2] (293.15 K) is on record as 1.5055 ± 0.0007.
For `Cc1ccc(O)cc1` [4-methylphenol], in data set [1] (475.35 K), the “vapor or sublimation pressure” value is listed as 95.1 ± 3 kPa. Further, the refractive index in data set [2] (298.15 K) is given as 1.5391 ± 0.0007.
For `Cc1ccccc1O` [2-methylphenol], the mass density in data set [1] was 1046 ± 1.6 kg/m3. For the same molecule, in data set [1] (463.65 K), the “vapor or sublimation pressure” value was 95.1 ± 3 kPa. In addition, the refractive index in data set [2] (293.15 K) is 1.5468 ± 0.0007.
In the case of `Cc1ccc(C)cc1` [1,4-dimethylbenzene], the mass density in data set [1] is listed as 861 ± 1.2 kg/m3. For the same molecule, the “vapor or sublimation pressure” value in data set [1] (408.65 K) stood at 95.1 ± 3 kPa. Also, the refractive index in data set [2] (293.15 K) turned out to be 1.4858 ± 0.0007.
As for `Cc1cccc(O)c1` [3-methylphenol], the mass density in data set [1] came out at 1034 ± 1.5 kg/m3. The “vapor or sublimation pressure” value in data set [1] (473.35 K) stood at 95.1 ± 3 kPa. Moreover, the refractive index in data set [2] (293.15 K) is 1.5414 ± 0.0007.
On to `Cc1cccc(C)c1` [1,3-dimethylbenzene], for which the mass density in data set [1] amounted to 864.4 ± 1.2 kg/m3. The “vapor or sublimation pressure” value in data set [1] (410.25 K) was found to be 95.1 ± 3 kPa. The refractive index in data set [2] (293.15 K) amounted to 1.4972 ± 0.0007.
